Values of other authors as cited in patent US10744140B2, “Synergistic nutraceutical beverage formulations providing enhanced thermogenesis, mental clarity, and stamina while minimizing adrenaline and dopamine concentration perturbations associated with withdrawal” (Power Supplements, LLC., priority 2016, dated 2020).

Key:
rhesus monkey TAAR1 = biological target: T1, rhesus monkey TAAR1 (Macaca mulatta, UniProt Q8HZ64); conditions: HEK293 cells transfected with rhesus monkey TAAR1, CRE-Luc reporter
T1 construct: expressed in transfected cells; host or cells: HEK293 (transient, with CRE-Luc and pGL4.73 reporters)
T1 sequence (Q8HZ64 1-338): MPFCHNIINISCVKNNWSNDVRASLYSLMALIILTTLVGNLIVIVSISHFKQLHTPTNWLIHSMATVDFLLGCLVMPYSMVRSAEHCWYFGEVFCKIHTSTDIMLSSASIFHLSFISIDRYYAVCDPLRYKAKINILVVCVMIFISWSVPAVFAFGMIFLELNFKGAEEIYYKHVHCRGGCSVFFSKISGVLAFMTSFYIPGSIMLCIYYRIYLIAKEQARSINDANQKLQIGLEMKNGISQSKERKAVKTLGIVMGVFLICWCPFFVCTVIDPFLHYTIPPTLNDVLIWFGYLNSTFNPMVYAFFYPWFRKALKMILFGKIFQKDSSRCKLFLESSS

[1] = biological target: T2, rat trace amine receptor (rTAR1) (Rattus norvegicus, UniProt Q923Y9); conditions: 1 μM, HEK 293 cells
T2 construct: expressed in transfected cells; host or cells: HEK 293
T2 sequence (Q923Y9 whole entry): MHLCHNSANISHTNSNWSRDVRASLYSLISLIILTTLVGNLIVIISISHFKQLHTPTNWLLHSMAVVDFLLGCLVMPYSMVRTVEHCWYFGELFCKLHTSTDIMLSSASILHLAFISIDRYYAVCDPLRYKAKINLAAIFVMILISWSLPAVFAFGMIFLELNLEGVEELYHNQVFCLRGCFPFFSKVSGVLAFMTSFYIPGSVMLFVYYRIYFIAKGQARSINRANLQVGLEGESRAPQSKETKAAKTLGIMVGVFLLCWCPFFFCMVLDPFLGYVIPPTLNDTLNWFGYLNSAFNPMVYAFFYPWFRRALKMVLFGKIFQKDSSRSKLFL

young females = conditions: 50 mg, two months
primate brain = conditions: acute administration
humans = conditions: higher of two single doses (100 mg, 250 mg)
[2] = system: SERT (serotonin transporter); conditions: cells expressing TAAR1 and SERT
[3] = system: NET (norepinephrine transporter); conditions: cells expressing TAAR1 and NET
[4] = system: DAT (dopamine transporter); conditions: cells expressing TAAR1 and DAT

NCC(O)c1ccc(O)cc1 (stereo not shown) [OCT, octopamine]
TAAR1 activation (cAMP production) (rhesus monkey TAAR1): activates TAAR1

NCCc1c[nH]c2ccccc12 [TRY, tryptamine]
TAAR1 activation (cAMP production) (rhesus monkey TAAR1): activates TAAR1

CN(C)CCc1ccc(O)cc1 [hordenine, N,N-dimethyltyramine]
potency in stimulating cAMP production through the rTAR1 [1]: almost identical potency to that of the same concentration of β-phenethylamine
heart rate (horses; 2 mg/kg intravenous (IV)): doubled
increase of the rate of respiration (horses; 2 mg/kg intravenous (IV)): 250%
respiratory distress (horses; 2 mg/kg intravenous (IV)): substantial respiratory distress
time until all effects disappeared (horses; 2 mg/kg intravenous (IV)): ≤ 30 min
effects after oral dosing (horses; same dose (2 mg/kg) given orally): did not produce any of the effects seen after parenteral administration
blood pressure (dogs and rats): increased systolic and diastolic blood pressure
effect on the heart (strength of contraction) (dogs and rats): positive inotropic effect on the heart
movements of the gut (dogs and rats): inhibited
peripheral blood flow (dogs and rats): increased the volume of peripheral blood flow

Cc1ncc(C[n+]2csc(CCO)c2C)c(N)n1 [thiamine]
attention (decision times in choice reaction time tasks) (young females): improved attention
mood (Profile of Mood States) (young females): improved mood

NCCc1ccc(O)cc1 [tyramine]
potency in stimulating cAMP production through the rTAR1 [1]: slightly higher than that of hordenine
TAAR1 activation (cAMP production) (rhesus monkey TAAR1): activates TAAR1

Cc1ncc(CO)c(CO)c1O [vitamin B6, pyridoxine]
serotonin synthesis in the brain (primate brain): increased serotonin synthesis
dream salience (humans): increase in dream salience

NCCc1ccccc1 [β-PEA, 2-phenylethylamine]
uptake of serotonin by its transporter [2]: reduces the uptake of the monoamines
uptake of norepinephrine by its transporter [3]: reduces the uptake of the monoamines
uptake of dopamine by its transporter [4]: reduces the uptake of the monoamines
TAAR1 activation (cAMP production) (rhesus monkey TAAR1): activates TAAR1
